Test results reported in patent publication US20260240810A1, “COMPOSITIONS AND METHODS FOR REDUCING ADVERSE SIDE EFFECTS IN CANCER TREATMENT” (priority 2022, published 2026).

Key:
[1] = test system: severe oral mucositis in patients receiving head and neck chemoradiotherapy; assay: PREVLAR Phase 2a trial: oral mucositis in patients receiving cisplatin + IMRT; type: in vivo, human; settings: for Median SOM duration: all patients, baseline to last day of radiation, 0 days if never SOM; for percent of SOM visits: minimum 65 Gy cumulative radiation; for median duration of SOM: only patients who developed SOM, onset to last visit with SOM
Protocol: Referring to FIG. 1, FIG. 1 is a table 100 showing a trial in which RRx-001 was tested in various groups of patients that were being treated for cancer with a combination of chemotherapy and IMRT. The various groups were divided into “Arms” based on a treatment: • Arm 1. pretreatment with 4 mg RRx-001 2 times per week for 2 weeks followed by 40 mg/m^2 each week or 100 mg/m^2 once every 3 weeks cisplatin+IMRT. • Arm 2. pretreatment with 4 mg RRx-001 2 times per week for 2 weeks followed by cotreatment with 4 mg RRx-001 2 times once on week 2 and once on week 5+40 mg/m^2 each week or 100 mg/m^2 once every 3 weeks cisplatin+IMRT. • Arm 3. pretreatment with 4 mg RRx-001 2 times per week for 2 weeks followed by cotreatment with 4 mg RRx-001 […]+40 mg/m^2 each week or 100 mg/m^2 once every 3 weeks cisplatin+IMRT. • Arm 4. standard of care 40 mg/m^2 each week or 100 mg/m^2 once every 3 weeks cisplatin+IMRT without RRx-001.
Accordingly, patients in Arm 1 of the study were administered a pretreatment of RRx-001 over a 2-week period. No RRx-001 was administered to the patients following the pretreatment period. Following the 2-week pretreatment period, the therapeutic agent comprising cisplatin and IMRT was administered to the patients over a 6-week period.
Patients in Arm 2 of the study were likewise administered a pretreatment of RRx-001 over a 2-week period. But RRx-001 was further administered at a low dose concurrently with cisplatin and IMRT over the 6-week period following the pretreatment period.
Arm 4 of the study was the control or standard of care (SOC). No RRx-001 was administered to the patients in Arm 4 of the study and there was no pretreatment period. All patients received the same amounts of cisplatin and IMRT for Arm 1, Arm2, Arm 3, and Arm 4 of the study. Patients in the study had the option to stop or refuse treatment at any time and not all patients finished the entire treatment.
Example 2 is a Phase 2a randomized, multi-institutional (n=13, of which 12 enrolled), open-label/unblinded, controlled trial in which patients were centrally randomized into four groups (“Arms”), with approximately 10 patients per Arm (or group) before the start of CRT, stratified by oropharynx versus oral cavity site. See M. Bonomi, et al. (2023) Int. J. Radiat. Oncol. Biol. Phys. 116(3): p. 551-559.
Study participants were adults (>18 years) with pathologically diagnosed stage III to IVB locally advanced (nonmetastatic) squamous cell carcinoma of the oral cavity or oropharynx that were scheduled to receive definitive or postoperative daily fractionation IMRT of 2.0 Gy to 2.2 Gy for a total dose of 60 Gy to 72 Gy with concomitant cisplatin given as either weekly (40 mg/m^2) or tri-weekly (100 mg/m^2) infusions. Radiation fields included at least 2 oral sites at risk of OM (e.g., buccal mucosa, floor of mouth, lateral/ventral tongue, or soft palate), which were planned to receive a minimum cumulative dose of 55 Gy. […] Patients received a pretreatment evaluation including complete history, dental assessment, physical examination, complete blood count and complete metabolic profile, hematology and biochemistry profiles, optional laryngoscopy, chest computed tomography (CT) or positron emission tomography (PET)/CT, CT, and a magnetic resonance imaging (MRI) or PET/CT of the tumor site and neck nodes.
Arms 1 to 3 received twice weekly infusions of RRx-001, 4 mg/dose after a premedication dose of dexamethasone (10 mg) for the 2 weeks preceding the start of CRT. Patients in Arm 2 received two additional 4 mg doses of RRx-001 after being premedicated with dexamethasone in weeks 2 and 5 of their CRT regimen. Patients in Arm 3 received weekly RRx-001 (4 mg after dexamethasone pre-dosing) during the first 6 weeks of CRT. Treatment was completed on the last day of radiation therapy (LDRT).
The treatment phase commenced 2 weeks before the start of CRT and continued until the LDRT. […]

[2] = test system: CD2F1 mice, lethal total body irradiation; assay: Survival after lethal total body irradiation; type: in vivo
Protocol: Mice were treated with vehicle or 10 mg/kg RRx-001 intraperitoneally 24 hours prior to irradiation (9.35 Gy delivered at 0.6 Gy/min).
CD2F1 mice were treated with lethal dose 70/30 whole body irradiation dose of 9.35 Gy at 0.6 Gy/min using a ^60Co source. Twenty-four hours prior to irradiation, all mice were intraperitoneally injected with either 10 mg/kg RRx-001 or the vehicle control (5% dimethyl sulfoxide in sterile water).

[3] = Repeated-dose toxicity study in rats; type: in vivo; settings: 3 times/week up to 4 weeks
Protocol: Repeated-dose toxicity studies of RRx-001 (3 times/week up to 4 weeks in duration) were conducted in rats at dose levels of 12 mg/kg, 20.1 mg/kg, and 30 mg/kg per day and in dogs at dose levels of 4 mg/kg, 8 mg/kg, and 12 mg/kg per day (due to clinical signs, the 8 mg/kg and 12 mg/kg doses were reduced to 3 mg/kg and 5 mg/kg on Day 4). The no observed adverse effect level was <12 mg/kg in rats and 5 mg/kg in dogs.

[4] = Arm 1: RRx-001 pretreatment + SOC chemoradiation
[5] = 10 mg/kg 24 hours prior to lethal total body irradiation, vs vehicle control

Question: For `O=C(CBr)N1CC([N+](=O)[O-])([N+](=O)[O-])C1` [RRx-001, 2-bromo-1-(3,3-dinitroazetidin-1-yl) ethan-1-one], which “estimate (averaged across all visits) MMRM probability of SOM” value ([1]; (pooled) RRx-001 treatment) is on record?
Answer: 15.3%

Question: What about the “incidence of SOM (any WHO score ≥3 between baseline to the last day of radiation)” value ([1]; Arm 1) of the same compound?
Answer: 83.3%

Question: What about the “patients with at least one day of Grade 4 OM between the first and LDRT” value (from here on “patients with at least one day”) ([1]; Arm 1) of the same compound?
Answer: 23.1%

Question: What about the “percent of visits with most severe forms (Grade 4) mucositis” value (“percent of visits with most severe forms” for short) ([1]; Arm 1) of the same compound?
Answer: 3.3%

Question: What about the “decrease in duration of SOM through 60 Gy vs. Arm 4” value ([1]; Arm 1: 4 mg RRx-001 2 times per week for 2 weeks pretreatment, then cisplatin+IMRT) of the same compound?
Answer: 16 days

Question: What about the “average days longer than Arm 4 before onset of SOM from start of chemotherapy” value [1, 4] of the same compound?
Answer: 12 days

Question: And the “decrease in SOM duration following treatment of IMRT compared to Arm 4” value [1, 4]?
Answer: 18 days

Question: And the “Median SOM duration” value ([1]; Arm 1)?
Answer: 5 days

Question: What about the “percent of SOM visits” value ([1]; Arm 1) of the same compound?
Answer: 23.6%

Question: And the “median duration of SOM” value ([1]; Arm 1)?
Answer: 8.5 days

Question: What about the “incidence of SOM (any WHO score ≥3 between baseline to the last day of radiation)” value ([1]; Arm 2) of the same compound?
Answer: 70%

Question: And the “patients with at least one day” value ([1]; Arm 2)?
Answer: 40%

Question: What about the “percent of visits with most severe forms” value ([1]; Arm 2) of the same compound?
Answer: 12.2%

Question: What about the “incidence of grade 4 OM through 60 Gy” value ([1]; Arm 2: RRx-001 pretreatment + 2 concurrent doses + SOC chemoradiation) of the same compound?
Answer: 40%

Question: And the “Median SOM duration” value ([1]; Arm 2)?
Answer: 13.5 days

Question: And the “percent of SOM visits” value ([1]; Arm 2)?
Answer: 22.2%

Question: What about the “median duration of SOM” value ([1]; Arm 2) of the same compound?
Answer: 17 days

Question: And the “incidence of SOM (any WHO score ≥3 between baseline to the last day of radiation)” value ([1]; Arm 3)?
Answer: 76.9%

Question: And the “patients with at least one day” value ([1]; Arm 3)?
Answer: 46.2%

Question: And the “percent of visits with most severe forms” value ([1]; Arm 3)?
Answer: 7.7%

Question: And the “incidence of grade 4 OM through 60 Gy” value ([1]; Arm 3: RRx-001 pretreatment + 6 concurrent doses + SOC chemoradiation)?
Answer: 46%

Question: What about the “Median SOM duration” value ([1]; Arm 3) of the same compound?
Answer: 8 days

Question: What about the “percent of SOM visits” value ([1]; Arm 3) of the same compound?
Answer: 25.7%

Question: And the “median duration of SOM” value ([1]; Arm 3)?
Answer: 10 days

Question: And the Odds ratio estimate ([1]; MMRM analysis of SOM, contrast SOC alone / (Pooled RRx-001))?
Answer: 3.24

Question: And the “SOM Probability (averaged across all visits)” value ([1]; MMRM analysis, pooled RRx-001-treated patients)?
Answer: 0.153

Question: What about the “aggregate percent of SOM visits” value ([1]; active arms, patients with minimum 65 Gy cumulative radiation) of the same compound?
Answer: 23.9%

Question: And the “incidence of SOM through the short-term follow-up period” value ([1]; active patients)?
Answer: 80%

Question: And the “SOM incidence by the last dose of radiotherapy (LDRT)” value ([1]; aggregate active Arms, about 72 Gy)?
Answer: 77.1%

Question: What about the “patients exhibiting SOM” value ([1]; patients who received RRx-001 (treated Arms), cumulative RT dose 45 Gy) of the same compound?
Answer: 42.9%

Question: What about the “patients exhibiting SOM” value ([1]; treated Arms, 55 Gy) of the same compound?
Answer: 57.1%

Question: What about the “patients exhibiting SOM” value ([1]; treated Arms, 65 Gy) of the same compound?
Answer: 71.4%

Question: And the “increase in mean survival time” value [2, 5]?
Answer: 7 days

Question: What about the increase in survival [2, 5] of the same compound?
Answer: 33.4%

Question: And the “Survival over 30 days post-exposure” value ([2]; 10 mg/kg intraperitoneally 24 hours prior to 9.35 Gy at 0.6 Gy/min)?
Answer: 67%

Question: What about the “reduction in the 30-day death risk” value ([2]; 1 dose of 10 mg/kg 24 hours prior to 9.35 Gy, vs vehicle control) of the same compound?
Answer: ~33.4%

Question: What about the “no observed adverse effect level” value [3] of the same compound?
Answer: < 12 mg/kg
